Test results published in US11400081B2, “Compounds” (The University of Sheffield, priority 2017, dated 2022).

The compounds below were run against T1, AM2 receptor (CALCRL+RAMP3) (Homo sapiens, UniProt O60896+Q16602) (assay: AM2 receptor inhibition, LANCE TR-FRET cAMP agonist-antagonist competition assay). Conditions: inhibition of AM induced cAMP activation; 1321N1 cells transfected with CALCRL+RAMP3; read-out: AM2 pIC50 (converted).
T1 construct: host or cells: 1321N1
Format: cell-based

T1 sequence (Q16602 23-461): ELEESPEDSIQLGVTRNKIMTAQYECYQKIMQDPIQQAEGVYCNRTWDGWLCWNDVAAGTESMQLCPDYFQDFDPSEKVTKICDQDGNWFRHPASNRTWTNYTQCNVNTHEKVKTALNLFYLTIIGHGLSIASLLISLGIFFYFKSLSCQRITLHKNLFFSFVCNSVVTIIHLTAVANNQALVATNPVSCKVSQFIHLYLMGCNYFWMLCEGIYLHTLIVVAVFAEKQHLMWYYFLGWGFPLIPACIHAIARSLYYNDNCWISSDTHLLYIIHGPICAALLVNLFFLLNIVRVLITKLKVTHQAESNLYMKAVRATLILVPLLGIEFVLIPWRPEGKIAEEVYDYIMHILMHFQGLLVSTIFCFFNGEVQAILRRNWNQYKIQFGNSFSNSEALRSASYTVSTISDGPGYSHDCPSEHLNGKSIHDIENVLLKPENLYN
T1 sequence (O60896 24-148): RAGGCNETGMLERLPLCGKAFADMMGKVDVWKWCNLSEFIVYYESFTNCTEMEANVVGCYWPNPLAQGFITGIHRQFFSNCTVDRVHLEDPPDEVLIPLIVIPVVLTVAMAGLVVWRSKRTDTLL

SMILES	IC50 [nM]
CNCc1ccccc1CN(CC(=O)Nc1ccc2c(c1)CC1(C2)C(=O)Nc2ncccc21)C(=O)C1CCCN1C(C)=O (stereo not drawn) [Example 69, 1-Acetyl-N-[[2-(methylaminomethyl)phenyl]methyl]-N-[2-oxo-2-[(2-oxospiro[1H-pyrrolo[2,3-b]pyridine-3,2′-indane]-5′-yl)amino]ethyl]pyrrolidine-2-carboxamide]	129
CNCc1ccccc1CN(CC(=O)Nc1ccc2c(c1)CC1(C2)C(=O)Nc2ncccc21)C(=O)C1CCN(C(=O)CN)CC1 (stereo not drawn) [Example 70, 1-(2-aminoacetyl)-N-(2-((methylamino)methyl)benzyl)-N-(2-oxo-2-((2′-oxo-1,1′,2′,3-tetrahydrospiro[indene-2,3′-pyrrolo[2,3-b]pyridin]-5-yl)amino)ethyl)piperidine-4-carboxamide bis(2,2,2-trifluoroacetate)]	44.7
CNCc1ccccc1CN(CC(=O)Nc1ccc2c(c1)CC1(C2)C(=O)Nc2ncccc21)C(=O)C1CCN(C(=O)N(C)C)CC1 (stereo not drawn) [Example 71, N1,N1-dimethyl-N4-(2-((methylamino)methyl)benzyl)-N4-(2-oxo-2-((2′-oxo-1,1′,2′,3-tetrahydrospiro[indene-2,3′-pyrrolo[2,3-b]pyridin]-5-yl)amino)ethyl)piperidine-1,4-dicarboxamide 2,2,2-trifluoroacetate]	2.45
CNCc1ccccc1CN(CC(=O)Nc1ccc2c(c1)CC1(C2)C(=O)Nc2ncccc21)C(=O)C1CCN(C(=O)NC(C)C)CC1 (stereo not drawn) [Example 73, N1-isopropyl-N4-(2-((methylamino)methyl)benzyl)-N4-(2-oxo-2-((2′-oxo-1,1′,2′,3-tetrahydrospiro[indene-2,3′-pyrrolo[2,3-b]pyridin]-5-yl)amino)ethyl)piperidine-1,4-dicarboxamide 2,2,2-trifluoroacetate]	8.32
CNCc1ccccc1CN(CC(=O)Nc1ccc2c(c1)CC1(C2)C(=O)Nc2ncccc21)C(=O)C1CCN(C(C)=O)C1 (stereo not drawn) [Example 74, 1-acetyl-N-(2-((methylamino)methyl)benzyl)-N-(2-oxo-2-((2′-oxo-1,1′,2′,3-tetrahydrospiro[indene-2,3′-pyrrolo[2,3-b]pyridin]-5-yl)amino)ethyl)pyrrolidine-3-carboxamide 2,2,2-trifluoroacetate]	15.5
CNCc1ccccc1CN(CC(=O)Nc1ccc2c(c1)CC1(C2)C(=O)Nc2ncccc21)C(=O)C1(C(F)(F)F)CC1 (stereo not drawn) [Example 75, N-[[2-(methylaminomethyl)phenyl]methyl]-N-[2-oxo-2-[(2-oxospiro[1H-pyrrolo[2,3-b]pyridine-3,2′-indane]-5′-yl)amino]ethyl]-1-(trifluoromethyl)cyclopropanecarboxamide 2,2,2-trifluoroacetate]	3.63
CNCc1ccccc1CN(CC(=O)Nc1ccc2c(c1)CC1(C2)C(=O)Nc2ncccc21)C(=O)C1(C(F)(F)F)CCC1 (stereo not drawn) [Example 76, N-[[2-(methylaminomethyl)phenyl]methyl]-N-[2-oxo-2-[(2-oxospiro[1H-pyrrolo[2,3-b]pyridine-3,2′-indane]-5′-yl)amino]ethyl]-1-(trifluoromethyl)cyclobutanecarboxamide 2,2,2-trifluoroacetate]	1.35
CNCc1ccccc1CN(CC(=O)Nc1ccc2c(c1)CC1(C2)C(=O)Nc2ncccc21)C(=O)C12CC(N)(C1)C2 (stereo not drawn) [Example 77, 3-amino-N-[[2-(methylaminomethyl)phenyl]methyl]-N-[2-oxo-2-[(2-oxospiro[1H-pyrrolo[2,3-b]pyridine-3,2′-indane]-5′-yl)amino]ethyl]bicyclo[1.1.1]pentane-1-carboxamide bis(2,2,2-trifluoroacetate)]	44.7
CNCc1ccccc1CN(CC(=O)Nc1ccc2c(c1)CC1(C2)C(=O)Nc2ncccc21)C(=O)C12CC(C1)C2 (stereo not drawn) [Example 78, N-(2-((methylamino)methyl)benzyl)-N-(2-oxo-2-((2′-oxo-1,1′,2′,3-tetrahydrospiro[indene-2,3′-pyrrolo[2,3-b]pyridin]-5-yl)amino)ethyl)bicyclo[1.1.1]pentane-1-carboxamide 2,2,2-trifluoroacetate]	5.5
CNCc1ccccc1CN(CC(=O)Nc1ccc2c(c1)CC1(C2)C(=O)Nc2ncccc21)C(=O)C1CCN(C(C)=O)CC1 (stereo not drawn) [Example 79, 1-Acetyl-N-(2-((methylamino)methyl)benzyl)-N-(2-oxo-2-((2′-oxo-1,1′,2′,3-tetrahydrospiro[indene-2,3′-pyrrolo[2,3-b]pyridin]-5-yl)amino)ethyl)piperidine-4-carboxamide]	22.4
CNCc1ccccc1CN(CC(=O)Nc1ccc2c(c1)CC1(C2)C(=O)Nc2ncccc21)C(=O)C1CCOC1 (stereo not drawn) [Example 80, N-(2-((Methylamino)methyl)benzyl)-N-(2-oxo-2-((2′-oxo-1,1′,2′,3-tetrahydrospiro[indene-2,3′-pyrrolo[2,3-b]pyridin]-5-yl)amino)ethyl)tetrahydrofuran-3-carboxamide]	14.8
CNCc1ccccc1CN(CC(=O)Nc1ccc2c(c1)CC1(C2)C(=O)Nc2ncccc21)C(=O)N1CCCC1 (stereo not drawn) [Example 81, N-(2-((Methylamino)methyl)benzyl)-N-(2-oxo-2-((2′-oxo-1,1′,2′,3-tetrahydrospiro[indene-2,3′-pyrrolo[2,3-b]pyridin]-5-yl)amino)ethyl)pyrrolidine-1-carboxamide]	7.41
CNCc1ccccc1CN(CC(=O)Nc1ccc2c(c1)CC1(C2)C(=O)Nc2ncccc21)C(=O)N(C)OC (stereo not drawn) [Example 82, 2-(3-Methoxy-3-methyl-1-(2-((methylamino)methyl)benzyl)ureido)-N-(2′-oxo-1,1′,2′,3-tetrahydrospiro[indene-2,3′-pyrrolo[2,3-b]pyridin]-5-yl)acetamide]	263
CNCc1ccccc1CN(CC(=O)Nc1ccc2c(c1)CC1(C2)C(=O)Nc2ncccc21)C(=O)NC1CCCC1 (stereo not drawn) [Example 83, 2-(3-Cyclopentyl-1-(2-((methylamino)methyl)benzyl)ureido)-N-(2′-oxo-1,1′,2′,3-tetrahydrospiro[indene-2,3′-pyrrolo[2,3-b]pyridin]-5-yl)acetamide]	42.7
CNCc1ccccc1CN(CC(=O)Nc1ccc2c(c1)CC1(C2)C(=O)Nc2ncccc21)C(=O)NC(C)C (stereo not drawn) [Example 84, 2-(3-Isopropyl-1-(2-((methylamino)methyl)benzyl)ureido)-N-(2′-oxo-1,1′,2′,3-tetrahydrospiro[indene-2,3′-pyrrolo[2,3-b]pyridin]-5-yl)acetamide]	52.5
CNCc1ccccc1CN(CC(=O)Nc1ccc2c(c1)CC1(C2)C(=O)Nc2ncccc21)C(=O)N(C)C (stereo not drawn) [Example 85, 2-(3,3-Dimethyl-1-(2-((methylamino)methyl)benzyl)ureido)-N-(2′-oxo-1,1′,2′,3-tetrahydrospiro[indene-2,3′-pyrrolo[2,3-b]pyridin]-5-yl)acetamide]	234
CNCc1ccccc1CN(CC(=O)Nc1ccc2c(c1)CC1(C2)C(=O)Nc2ncccc21)C(=O)N1CCCCC1 (stereo not drawn) [Example 87, N-(2-((Methylamino)methyl)benzyl)-N-(2-oxo-2-((2′-oxo-1,1′,2′,3-tetrahydrospiro[indene-2,3′-pyrrolo[2,3-b]pyridin]-5-yl)amino)ethyl)piperidine-1-carboxamide]	43.7
CNCc1ccccc1CN(CC(=O)Nc1ccc2c(c1)CC1(C2)C(=O)Nc2ncccc21)C(=O)C1CCNCC1 (stereo not drawn) [Example 88, N-(2-((Methylamino)methyl)benzyl)-N-(2-oxo-2-((2′-oxo-1,1′,2′,3-tetrahydrospiro[indene-2,3′-pyrrolo[2,3-b]pyridin]-5-yl)amino)ethyl)piperidine-4-carboxamide]	148
CNCc1ccccc1CN(CC(=O)Nc1ccc2c(c1)CC1(C2)C(=O)Nc2ncccc21)C(=O)N1CCC2(CCNCC2)CC1 (stereo not drawn) [Example 89, N-(2-((Methylamino)methyl)benzyl)-N-(2-oxo-2-((2′-oxo-1,1′,2′,3-tetrahydrospiro[indene-2,3′-pyrrolo[2,3-b]pyridin]-5-yl)amino)ethyl)-3,9-diazaspiro[5.5]undecane-3-carboxamide]	87.1
CNCc1ccccc1CN(CC(=O)Nc1ccc2c(c1)CC1(C2)C(=O)Nc2ncccc21)C(=O)N1CCC2(CCNCC2)C1 (stereo not drawn) [Example 90, N-(2-((Methylamino)methyl)benzyl)-N-(2-oxo-2-((2′-oxo-1,1′,2′,3-tetrahydrospiro[indene-2,3′-pyrrolo[2,3-b]pyridin]-5-yl)amino)ethyl)-2,8-diazaspiro[4.5]decane-2-carboxamide]	501
CNCc1ccccc1CN(CC(=O)Nc1ccc2c(c1)CC1(C2)C(=O)Nc2ncccc21)C(=O)C(C)(C)c1ccc(CN2CCNCC2)cc1 (stereo not drawn) [Example 91, 2-Methyl-N-(2-((methylamino)methyl)benzyl)-N-(2-oxo-2-((2′-oxo-1,1′,2′,3-tetrahydrospiro[indene-2,3′-pyrrolo[2,3-b]pyridin]-5-yl)amino)ethyl)-2-(4-(piperazin-1-ylmethyl)phenyl)propanamide]	24
CNCc1ccccc1CN(CC(=O)Nc1ccc2c(c1)C[C@@]1(C2)C(=O)Nc2ncccc21)C(=O)C12CC3CC(CC(C3)C1)C2 [Example 92, N-[[2-(methylaminomethyl)phenyl]methyl]-N-[2-oxo-2-[[(3R)-2-oxospiro[1H-pyrrolo[2,3-b]pyridine-3,2′-indane]-5′-yl]amino]ethyl]adamantane-1-carboxamide 2,2,2-trifluoroacetate]	79.4
CNCc1ccccc1CN(CC(=O)Nc1ccc2c(c1)C[C@@]1(C2)C(=O)Nc2ncccc21)C(=O)C1(C(F)(F)F)CCCC1 [Example 94, N-[[2-(methylaminomethyl)phenyl]methyl]-N-[2-oxo-2-[[(3R)-2-oxospiro[1H-pyrrolo[2,3-b]pyridine-3,2′-indane]-5′-yl]amino]ethyl]-1-(trifluoromethyl)cyclopentanecarboxamide 2,2,2-trifluoroacetate]	17.8
CNCc1ccccc1CN(CC(=O)Nc1ccc2c(c1)C[C@@]1(C2)C(=O)Nc2ncccc21)C(=O)C(C)(C)F [Example 95, (R)-2-Fluoro-2-methyl-N-(2-((methylamino)methyl)benzyl)-N-(2-oxo-2-((2′-oxo-1,1′,2′,3-tetrahydrospiro[indene-2,3′-pyrrolo[2,3-b]pyridin]-5-yl)amino)ethyl)propanamide 2,2,2-trifluoroacetate]	28.8
